Values of other authors as cited in patent US9346789B2, “Combinations of AKT inhibitor compounds and abiraterone, and methods of use” (Genentech, Inc., priority 2011, dated 2016).

Target: T1, topoisomerase I (Homo sapiens, UniProt P11387)
T1 sequence (P11387 1-765): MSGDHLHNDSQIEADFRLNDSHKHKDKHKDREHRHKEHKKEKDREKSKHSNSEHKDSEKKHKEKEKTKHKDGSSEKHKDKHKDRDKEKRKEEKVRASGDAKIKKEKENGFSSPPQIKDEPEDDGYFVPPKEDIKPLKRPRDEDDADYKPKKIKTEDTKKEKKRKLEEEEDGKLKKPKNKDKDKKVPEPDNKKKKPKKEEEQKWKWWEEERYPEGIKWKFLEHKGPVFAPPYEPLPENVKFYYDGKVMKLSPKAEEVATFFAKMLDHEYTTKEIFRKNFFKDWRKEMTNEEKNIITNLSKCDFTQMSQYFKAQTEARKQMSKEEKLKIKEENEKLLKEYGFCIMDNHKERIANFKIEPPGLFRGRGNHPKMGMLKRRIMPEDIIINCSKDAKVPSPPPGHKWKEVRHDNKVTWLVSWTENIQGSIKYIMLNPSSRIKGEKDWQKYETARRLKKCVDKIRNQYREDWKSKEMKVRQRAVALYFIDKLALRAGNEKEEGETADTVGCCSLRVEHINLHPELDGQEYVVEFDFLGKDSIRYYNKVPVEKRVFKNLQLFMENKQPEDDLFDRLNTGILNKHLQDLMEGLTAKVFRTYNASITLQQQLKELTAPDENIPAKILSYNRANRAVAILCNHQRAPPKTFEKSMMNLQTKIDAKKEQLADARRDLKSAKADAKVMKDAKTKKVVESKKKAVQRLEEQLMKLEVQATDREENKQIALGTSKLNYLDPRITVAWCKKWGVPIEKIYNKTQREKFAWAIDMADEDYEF
Details: active metabolite versus irinotecan itself

## CCc1c2c(nc3ccc(O)cc13)-c1cc3c(c(=O)n1C2)COC(=O)[C@]3(O)CC [SN-38, 7-ethyl-10-hydroxy-camptothecin]
  activity relative to irinotecan: 200 times
